Tests used:
Assay type in all cases: functional
[1] = system: A549; assay: Cytotoxicity against Homo sapiens (human) A549 cells assessed as cell viability at 10 uM after 72 hr by MTT assay; settings: A549, 72 h, read-out: Activity
[2] = system: HeLa; assay: Cytotoxicity against Homo sapiens (human) HeLa cells assessed as cell viability at 10 uM after 72 hr by MTT assay; settings: read-out: Activity
[3] = system: DU-145; assay: Cytotoxicity against Homo sapiens (human) DU145 cells assessed as cell viability at 10 uM after 72 hr by MTT assay; settings: DU-145, 72 h, read-out: Activity

| SMILES | viability at 10 µM [1] | viability at 10 µM [2] | viability at 10 µM [3] |
| --- | --- | --- | --- |
| Fc1ccc2c(c1)c1nc3ccccc3nc1n2Cc1cn(-c2cccc(C(F)(F)F)c2)nn1 | 93.7% | 86.4% | 77.5% |
| Fc1ccc(-n2cc(Cn3c4ccc(F)cc4c4nc5ccccc5nc43)nn2)c(F)c1 | 87.9% | 86.8% | 77.3% |
| Fc1ccc(COc2cccc(-n3cc(Cn4c5ccccc5c5nc6ccccc6nc54)nn3)c2)cc1 | 98.3% | 81.5% | 77.6% |
| Fc1ccc(-n2cc(Cn3c4ccccc4c4nc5ccccc5nc43)nn2)c(F)c1 | 94.7% | 80.7% | 77.4% |
| Clc1cccc(-n2cc(Cn3c4ccccc4c4nc5ccccc5nc43)nn2)c1 | 104% | 77.5% | 77.5% |
| Fc1ccc2c(c1)c1nc3ccccc3nc1n2Cc1cn(-c2ccccc2Br)nn1 | 94.7% | 89.4% | 90.1% |
| Fc1ccc(-n2cc(Cn3c4ccccc4c4nc5ccccc5nc43)nn2)cc1 | 94.7% | 77.4% | 83.2% |
| Brc1ccccc1-n1cc(Cn2c3ccccc3c3nc4ccccc4nc32)nn1 | 85.5% | 75.6% | 85.4% |
| COc1cccc2c1C(=O)c1c(O)c3c(c(O)c1C2=O)C[C@@](O)(C(=O)CO)C[C@@H]3O[C@H]1C[C@H](N)[C@H](O)[C@H](C)O1 [DOXORUBICIN] | 6.33% | 12% | 9% |
| Fc1cc(-n2cc(Cn3c4ccccc4c4nc5ccccc5nc43)nn2)ccc1Cl | 83.5% | 93.6% | 76.1% |
| Fc1ccc(-n2cc(Cn3c4ccc(F)cc4c4nc5ccccc5nc43)nn2)cc1 | 97.1% | 91.9% | 85% |
| Fc1ccc2c(c1)c1nc3ccccc3nc1n2Cc1cn(-c2cccc(Cl)c2)nn1 | 91.9% | 77.7% | 73.2% |
| FC(F)(F)c1cccc(-n2cc(Cn3c4ccccc4c4nc5ccccc5nc43)nn2)c1 | 83.4% | 76.9% | 76.5% |
| Fc1ccc2c(c1)c1nc3ccccc3nc1n2Cc1cn(-c2ccccc2)nn1 | 97.8% | 92% | 72.6% |

From ChEMBL document CHEMBL3046073, “Synthesis and cytotoxicity of novel 6H-indolo[2,3-b]quinoxaline derivatives” (2013)
